# Counter-ions that a name gives are not always drawn. Like-named read-outs stand apart in the source and are kept apart here.
# Key:
# log P (HPLC-MS) = assay type: physicochemical
# [1] = tested on: Heligmosomoides polygyrus; experiment: Heligmosomoides polygyrus/mouse in vivo efficacy test; settings: mice; oral; four consecutive days during early patency; dose not given
# Procedure: Heligmosomoides polygyrus/mouse
# Mice, experimentally infected by Heligmosomoides polygyrus, were treated on four consecutive days during early patency. Test compounds were formulated as solutions or suspensions and applied orally.
# Efficacy was determined as reduction of worm count in the intestine after necropsy compared to worm count in an infected and placebo-treated control group.
# Meloidogyne incognita [2] = experiment: Meloidogyne incognita test (MELGIN), comparison example, solvent dimethylformamide with emulsifier; assay type: in vivo; settings: 504 h, 21 dat, read-out: % Efficacy MELGIN
# Procedure: (§1) Meloidogyne incognita—Test (MELGIN)
# To produce a suitable preparation of active compound, 1 part by weight of active compound is mixed with the stated amount of solvent, and the concentrate is diluted with emulsifier-containing water to the desired concentration.
# Vessels are filled with sand, a solution of the active ingredient, a suspension containing eggs and larvae of Meloidogyne incognita and salad seeds. The salad seeds germinate and the seedlings grow. Galls develop on the roots.
# After the specified period of time the nematicidal activity is determined on the basis of the percentage of gall formation. 100% means that no galls were found; 0% means that the number of galls found on the roots of the treated plants was equal to that in untreated control plants.
# Cooperia curticei = Cooperia curticei test (COOPCU), larval mortality; settings: 120 h; for Emax at 0.8 ppm: read-out: % Efficacy COOPCU; for mortality at 20 ppm: read-out: activity (larval mortality, efficacy)
# Procedure: Cooperia curticei—Test (COOPCU)
# (§2) Solvent: dimethyl sulfoxide
# (§3) To produce a suitable preparation of active compound, 10 mg of active compound are dissolved in 0.5 ml solvent, and the concentrate is diluted with “Ringer's solution” to the desired concentration.
# Approximately 40 nematode larvae (Cooperia curticei) are transferred into a test tube containing the compound solution.
# After 5 days percentage of larval mortality is recorded. 100% efficacy means all larvae are killed; 0% efficacy means no larvae are killed.
# Cooperia curticei—Test (COOPCU) Solvent: dimethyl sulfoxide
# Haemonchus contortus = Haemonchus contortus test (HAEMCO), larval mortality; settings: 120 h; for Emax at 0.8 ppm: 5 dat, read-out: % Efficacy HAEMCO; for mortality at 20 ppm: application rate 20 ppm, after 5 days, read-out: activity (larval mortality, efficacy)
# Procedure: Haemonchus contortus—Test (HAEMCO)
# as §2, §3
# Approximately 40 larvae of the red stomach worm (Haemonchus contortus) are transferred into a test tube containing compound solution.
# After 5 days percentage of larval mortality are recorded. 100% efficacy means all larvae are killed, 0% efficacy means no larvae are killed.
# Haemonchus contortus—Test (HAEMCO) Solvent: dimethyl sulfoxide
# Meloidogyne incognita [3] = experiment: Meloidogyne incognita test (MELGIN), gall formation, solvent acetone; assay type: in vivo; settings: application rate 20 ppm; after 14 days
# Procedure: as §1
# To produce a suitable preparation of active compound, 1 part by weight of active compound is mixed with the stated amount of solvent, and the concentrate is diluted with water to the desired concentration.
# Vessels are filled with sand, a solution of the active ingredient, a suspension containing eggs and larvae of the southern root-knot nematode (Meloidogyne incognita) and salad seeds. The salad seeds germinate and the seedlings grow. Galls develop in the roots.
# After 14 days the nematicidal activity is determined on the basis of the percentage of gall formation. 100% means that no galls were found; 0% means that the number of galls found on the roots of the treated plants was equal to that in untreated control plants.
smiles,measurement,setting,value
"CC(F)(CN)c1ccc(Cl)cc1Cl (stereo not drawn) [2-(2,4-dichlorophenyl)-2-fluoropropan-1-amine hydrochloride]",chromatographic logP,log P (HPLC-MS),0.89
"O=C(NCC(F)(F)c1ccc(Cl)cc1Cl)c1ccccc1C(F)(F)F [Example 1-1, N-[2-(2,4-dichlorophenyl)-2,2-difluoroethyl]-2-(trifluoromethyl)benzamide]",activity (reduction of worm count in the intestine vs placebo-treated control),[1],65%
same,Emax at 2 ppm,Meloidogyne incognita [2],95%
same,Emax at 0.8 ppm,Cooperia curticei,100%
same,mortality at 20 ppm,Cooperia curticei,100%
same,Emax at 0.8 ppm,Haemonchus contortus,100%
same,mortality at 20 ppm,Haemonchus contortus,100%
same,"activity (nematicidal, gall formation)",Meloidogyne incognita [3],100%
"CC(Cc1ccc(Cl)cc1Cl)NC(=O)c1ccccc1C(F)(F)F (stereo not drawn) [Example 1-32 known from WO-A 2012/118139, reference compound]",Emax at 2 ppm,Meloidogyne incognita [2],15%
same,Emax at 0.8 ppm,"Cooperia curticei; 0.8 ppm, 5 dat",0%
same,Emax at 0.8 ppm,Haemonchus contortus,80%
"CC(F)(CNC(=O)c1ccccc1C(F)(F)F)c1ccc(Cl)cc1Cl (stereo not drawn) [Example 1-393, N-[2-(2,4-dichlorophenyl)-2-fluoropropyl]-2-(trifluoromethyl)benzamide]",mortality at 20 ppm,Cooperia curticei,100%
same,mortality at 20 ppm,Haemonchus contortus,100%
same,"activity (nematicidal, gall formation)",Meloidogyne incognita [3],100%
"O=C(NCC(F)c1ccccc1C(F)(F)F)c1ccccc1C(F)(F)F (stereo not drawn) [Example 1-399, N-{2-fluoro-2-[2-(trifluoromethyl)phenyl]ethyl}-2-(trifluoromethyl)benzamide]",mortality at 20 ppm,Haemonchus contortus,100%
"O=C(NCC(F)c1ccccc1Cl)c1ccccc1C(F)(F)F (stereo not drawn) [Example 1-400, N-[2-(2-chlorophenyl)-2-fluoroethyl]-2-(trifluoromethyl)benzamide]",mortality at 20 ppm,Haemonchus contortus,100%
"CC(F)(CNC(=O)c1ccccc1C(F)(F)F)c1ccc(Cl)cc1Cl (stereo not drawn) [Example 1-406, N-[2-(2,4-dichlorophenyl)-2-fluoropropyl]-2-(trifluoromethyl)benzamide]",chromatographic logP,log P (HPLC-MS),3.7
same,"activity (nematicidal, gall formation)",Meloidogyne incognita [3],100%

# Reference: patent US20180305299A1, “N-(2-FLUORO-2-PHENETHYL)CARBOXAMIDES AS NEMATICIDES AND ENDOPARASITICIDES” (priority 2013, published 2018)
